# Reference: patent US20260001914A1, “MACROCYCLIC PEPTIDES TARGETING KRAS” (Merck Sharp & Dohme LLC, priority 2022, published 2026)
# *1 amine or outer side, *2 acyl side, *3 side chain or, on linkers, in order; H or OH if unused. Where a SMILES comes first, the peptide text is derived from it. Bridges are numbered along the chain shown (N, C = ends). [ ]: non-standard residue; d: D form. NMeNva(5-imidazol-1-yl) = CN[C@@H](CCCn1ccnc1)C(=O)O; Phe(4-guanidino) = N=C(N)Nc1ccc(C[C@H](N)C(=O)O)cc1; Ala(pyrimidin-5-yl) = N[C@@H](Cc1cncnc1)C(=O)O; X81 = Cc1ccc(C[C@H](N[*:1])C(=O)[*:2])c(F)n1; Phe(4-CH2NH2) = NCc1ccc(C[C@H](N)C(=O)O)cc1; X45 = CN([C@@H](Cc1ccncc1F)C(=O)[*:2])[*:1]; X7 = C[C@H](N[*:1])C12CC(C(=O)[*:2])(C1)C2; Bip = N[C@@H](Cc1ccc(-c2ccccc2)cc1)C(=O)O; X20 = CN([C@@H](Cc1cnco1)C(=O)[*:2])[*:1]; X26 = Cn1cc(C[C@H](N[*:1])C(=O)[*:2])cn1; Lys(N3) = [N-]=[N+]=NCCCC[C@H](N)C(=O)O; Phe(4-F) = N[C@@H](Cc1ccc(F)cc1)C(=O)O; 1Nal = N[C@@H](Cc1cccc2ccccc12)C(=O)O; NHCH2CH2SCH2CO = O=C(CSCCN[*:1])[*:2]; X21 = O=C([C@@H]1C[C@H]1CN[*:1])[*:2]; Phe(2-F) = N[C@@H](Cc1ccccc1F)C(=O)O; NMe3Pal = CN[C@@H](Cc1cccnc1)C(=O)O; X1 = O=C(C12CC(CN[*:1])(C1)C2)[*:2]; hTyr = N[C@@H](CCc1ccc(O)cc1)C(=O)O; NMeLys(Me) = CNCCCC[C@H](NC)C(=O)O; NMeR = CN[C@@H](CCCNC(=N)N)C(=O)O; Ala(cPr) = N[C@@H](CC1CC1)C(=O)O; NMeF = CN[C@@H](Cc1ccccc1)C(=O)O; PhLac = O=C(O)[C@@H](O)Cc1ccccc1; 3Pal = N[C@@H](Cc1cccnc1)C(=O)O; 4Pal = N[C@@H](Cc1ccncc1)C(=O)O; d(αMeC) = C[C@@](N)(CS)C(=O)O; Ahp(2) = CCCCC[C@H](N)C(=O)O; Cba = N[C@@H](CC1CCC1)C(=O)O; hLeu = CC(C)CC[C@H](N)C(=O)O; hLys = NCCCCC[C@H](N)C(=O)O; αMeC = C[C@](N)(CS)C(=O)O; NMeA = CN[C@@H](C)C(=O)O; Nle = CCCC[C@H](N)C(=O)O; Nva = CCC[C@H](N)C(=O)O
# Target: KRAS-G12D protein (Homo sapiens, UniProt P01116, G12D)
# Assay: SOS-mediated nucleotide exchange assay (BODIPY-GDP / Tb-streptavidin TR-FRET)
# Assay type: biochemical
# Chain of KRAS-G12D protein (P01116 1-188 isoform P01116-2 G12D): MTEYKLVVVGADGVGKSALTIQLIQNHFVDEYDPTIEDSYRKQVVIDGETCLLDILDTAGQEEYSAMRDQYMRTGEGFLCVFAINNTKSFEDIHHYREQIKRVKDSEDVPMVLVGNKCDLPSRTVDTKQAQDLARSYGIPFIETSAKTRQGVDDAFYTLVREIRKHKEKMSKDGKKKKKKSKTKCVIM
row,Structure (SMILES),EC50
1,"CC(C)CC[C@@H]1NC(=O)[C@H](Cc2ccccc2F)NC(=O)[C@H](CC2CC2)NC(=O)[C@H](Cc2cncnc2)NC(=O)[C@H](C)N(C)C(=O)[C@H](Cc2ccccc2)OC(=O)C23CC(CNC(=O)[C@H](Cc4ccncc4F)N(C)C1=O)(C2)C3 [compound 337, cyclo(FLac-NMeA-PyrimAla-cPrA-Phe2F-hL-NMe4Pal2F-amBCP)] (cyclo([Ala(cPr)][Phe(2-F)][hLeu][X45][X1][PhLac][NMeA][Ala(pyrimidin-5-yl)]))",3 nM
2,"CCCC[C@@H]1NC(=O)[C@H](Cc2cncnc2)NC(=O)[C@H](C)N(C)C(=O)[C@H](Cc2ccccc2)OC(=O)C23CC(C2)(C3)[C@H](C)NC(=O)[C@H](Cc2cccnc2)N(C)C(=O)[C@H](CCCC)NC(=O)[C@H](Cc2ccccc2F)NC1=O [compound 121, cyclo(FLac-NMeA-PyrimAla-Nle-Phe2F-Nle-NMe3Pal-SMeamBCP)] (cyclo([NMe3Pal][X7][PhLac][NMeA][Ala(pyrimidin-5-yl)][Nle][Phe(2-F)][Nle]))",33.5 nM
3,"CCCC[C@@H]1NC(=O)[C@H](CCCCCN)NC(=O)[C@H](CCCNC(=N)N)NC(=O)[C@H](Cc2ccccc2)NC(=O)CSCCNC(=O)[C@H](Cc2ccccc2)N(C)C(=O)[C@H](CCc2ccc(O)cc2)NC(=O)[C@H](Cc2ccc(-c3ccccc3)cc2)NC1=O [compound 194, cyclo(F-R-hK-Nle-Bip-hY-NMeF-Cysteamine-ClAc)] (cyclo([Bip][hTyr][NMeF][NHCH2CH2SCH2CO]FR[hLys][Nle]))",4490 nM
4,"CCCC[C@@H]1NC(=O)[C@H](Cc2cccnc2)NC(=O)[C@H](CCCn2ccnc2)N(C)C(=O)[C@H](Cc2ccccc2)OC(=O)C23CC(CNC(=O)[C@H](Cc4ccccc4)N(C)C(=O)[C@H](CCCC)NC(=O)[C@H](Cc4ccccc4F)NC1=O)(C2)C3 [compound 233, cyclo(FLac-NMeNvalmid-3Pal-Nle-Phe2F-Nle-NMeF-amBCP)] (cyclo([3Pal][Nle][Phe(2-F)][Nle][NMeF][X1][PhLac][NMeNva(5-imidazol-1-yl)]))",28.9 nM
5,"CCCC[C@@H]1NC(=O)[C@H](Cc2cccnc2)NC(=O)[C@H](C)N(C)C(=O)[C@H](Cc2ccc(OC)cc2)NC(=O)C23CC(CNC(=O)[C@H](Cc4cccnc4)N(C)C(=O)[C@H](CCCC)NC(=O)[C@H](Cc4ccccc4F)NC1=O)(C2)C3 [compound 169, cyclo(TyrOMe-NMeA-3Pal-Nle-Phe2F-Nle-NMe3Pal-amBCP)] (cyclo([3Pal][Nle][Phe(2-F)][Nle][NMe3Pal][X1]Y(Me)[NMeA]))",757 nM
6,"CCCC[C@@H]1NC(=O)[C@H](Cc2cccnc2)NC(=O)[C@H](CCCn2ccnc2)N(C)C(=O)[C@H](Cc2ccccc2)NC(=O)C23CC(CNC(=O)[C@H](Cc4cccnc4)N(C)C(=O)[C@H](CCCC)NC(=O)[C@H](Cc4ccccc4F)NC1=O)(C2)C3 [compound 265, cyclo(F-NMeNvalmid~3Pal-Nle-Phe2F-Nlc-NMe3Pal-amBCP)] (cyclo(F[NMeNva(5-imidazol-1-yl)][3Pal][Nle][Phe(2-F)][Nle][NMe3Pal][X1]))",90.9 nM
7,"CCCCC[C@@H]1NC(=O)[C@H](Cc2ccc(OC)cc2)NC(=O)[C@H](CC2CCC2)NC(=O)[C@H](Cc2ccc(NC(=N)N)cc2)NC(=O)[C@H](CCCNC(=N)N)NC(=O)[C@H](Cc2ccccc2)NC(=O)CSC[C@H](C(N)=O)NC(=O)[C@H](Cc2ccccc2)N(C)C1=O [compound 352, cyclo(F-R-Phe4Gn-cBuA-TyrOMe-Ahp-NMeF-dCl-ClAc)] ({CH2CO}-FR[Phe(4-guanidino)][Cba]Y(Me)[Ahp(2)][NMeF][dC]-NH2; thioether N-8)",4.92 nM
8,"COc1ccc(C[C@@H]2NC(=O)[C@H](CC3CCC3)NC(=O)[C@H](Cc3cccnc3)NC(=O)[C@H](CCCNC(=N)N)NC(=O)[C@H](Cc3ccccc3)NC(=O)CSC[C@](C)(C(N)=O)NC(=O)[C@@H]3CCCCCCC[C@H](NC2=O)C(=O)N3C)cc1 [SEQ ID NO: 192, cyclo(F-R-3Pal-cBuA-TyrOMe-AheNMeHag-aMeC-C1Ac)]",127 nM
9,"CCCC[C@@H]1NC(=O)[C@H](Cc2cccnc2)NC(=O)[C@H](CCCNC(=N)N)N(C)C(=O)[C@H](Cc2ccccc2)NC(=O)[C@@H]2C[C@H]2CNC(=O)[C@H](Cc2ccccc2)N(C)C(=O)[C@H](CCCCN=[N+]=[N-])NC(=O)[C@H](Cc2ccc(OC)cc2)NC1=O [compound 94, cyclo(F-NMeR-3Pal-Nle-TyrOMe-LysN3-NMeF-tamcPr)] (cyclo(F[NMeR][3Pal][Nle]Y(Me)[Lys(N3)][NMeF][X21]))",224 nM
10,"CCC[C@@H]1NC(=O)[C@H](Cc2ccc(OC)cc2)NC(=O)[C@H](CC(C)C)NC(=O)[C@H](Cc2ccncc2)NC(=O)[C@H](CCCNC(=N)N)NC(=O)[C@H](Cc2ccc(F)cc2)NC(=O)CSC[C@H](C(=O)NCC(=O)O)NC(=O)[C@H](Cc2ccccc2)N(C)C1=O [compound 65, cyclo(Phe4F-R-4Pal-L-TyrOMe-Nva-NMeF-dC5-ClAc)] ({CH2CO}-[Phe(4-F)]R[4Pal]LY(Me)[Nva][NMeF][dC]G-OH; thioether N-8)",70.2 nM
11,"CCCCC[C@@H]1NC(=O)[C@H](Cc2ccc(OC)cc2)NC(=O)[C@H](CC2CCC2)NC(=O)[C@H](Cc2cccnc2)NC(=O)[C@H](CCCNC(=N)N)NC(=O)[C@H](Cc2ccccc2)NC(=O)CSC[C@@](C)(C(N)=O)NC(=O)[C@H](Cc2cnco2)N(C)C1=O [compound 379, cyclo(F-R-3Pal-cBuA-TyrOMe-Ahp-NMeAla5Oxa-aMeCl-ClAc)] ({CH2CO}-FR[3Pal][Cba]Y(Me)[Ahp(2)][X20][αMeC]-NH2; thioether N-8)",48.9 nM
12,"CCCC[C@@H]1NC(=O)[C@H](Cc2cnn(C)c2)NC(=O)[C@H](C)N(C)C(=O)[C@H](Cc2ccccc2)OC(=O)C23CC(CNC(=O)[C@H](Cc4cccnc4)N(C)C(=O)[C@H](CCCC)NC(=O)[C@H](Cc4ccccc4F)NC1=O)(C2)C3 [compound 400, cyclo(FLac-NMeA-Ala4PyzlMe-Nle-Phe2F-Nle-NMe3Pal-amBCP)] (cyclo([NMe3Pal][X1][PhLac][NMeA][X26][Nle][Phe(2-F)][Nle]))",14 nM
13,"CCCCC[C@@H]1NC(=O)[C@H](Cc2ccc(OC)cc2)NC(=O)[C@H](CC2CCC2)NC(=O)[C@H](Cc2ccc(NC(=N)N)cc2)NC(=O)[C@H](CCCCNC)N(C)C(=O)[C@H](Cc2ccccc2)NC(=O)CSC[C@@](C)(C(N)=O)NC(=O)[C@H](Cc2ccccc2)N(C)C1=O [compound 360, cyclo(F-NMeLysMe-Phe4Gn-cBuA-TyrOMe-Ahp-NMeF-aMeCl-ClAc)] ({CH2CO}-F[NMeLys(Me)][Phe(4-guanidino)][Cba]Y(Me)[Ahp(2)][NMeF][αMeC]-NH2; thioether N-8)",291 nM
14,"CCCC[C@@H]1NC(=O)[C@H](Cc2ccc(C)nc2F)NC(=O)[C@H](C)N(C)C(=O)[C@H](Cc2ccccc2)OC(=O)C23CC(CNC(=O)[C@H](Cc4ccccc4)N(C)C(=O)[C@H](CCCC)NC(=O)[C@H](Cc4ccccc4F)NC1=O)(C2)C3 [compound 311, cyclo(FLac-NMeA-3Pal2F4Me-Nle-Phe2F-Nle-NMeF-amBCP)] (cyclo([NMeA][X81][Nle][Phe(2-F)][Nle][NMeF][X1][PhLac]))",892 nM
15,"CCCC[C@@H]1NC(=O)[C@H](CCCCN)NC(=O)[C@H](CCCNC(=N)N)NC(=O)[C@H](C(c2ccccc2)c2ccccc2)NC(=O)CSC[C@H](C(N)=O)NC(=O)[C@H](Cc2ccccc2)N(C)C(=O)[C@H](CCCC)NC(=O)[C@H](Cc2ccc(O)cc2)NC1=O [compound 149, cyclo(Dip-R-K-Nle-Y-Nle-NMeF-dCl-ClAc)]",1030 nM
16,"CCC[C@@H]1NC(=O)[C@H](Cc2ccc(O)cc2)NC(=O)[C@H](CC(C)C)NC(=O)[C@H](Cc2ccc(O)cc2)NC(=O)[C@H](CCCNC(=N)N)NC(=O)[C@H](Cc2ccccc2)NC(=O)CSC[C@H](C(N)=O)NC(=O)[C@H](Cc2ccccc2)N(C)C1=O [compound 21, cyclo(F-R-Y-L-Y-Nva-NMeF-dCl-ClAc)]",6420 nM
17,"CCCC[C@@H]1NC(=O)[C@H](Cc2ccc(CN)cc2)NC(=O)[C@H](CCCNC(=N)N)NC(=O)[C@H](Cc2cccc3ccccc23)NC(=O)CSC[C@](C)(C(=O)O)NC(=O)[C@H](Cc2ccccc2)N(C)C(=O)[C@H](CCCC)NC(=O)[C@H](Cc2ccc(O)cc2)NC1=O [compound 144, cyclo(1Nal-R-Phe4CH2NH2-Nle-Y-Nle-NMeF-daMeC-ClAc)] ({CH2CO}-[1Nal]R[Phe(4-CH2NH2)][Nle]Y[Nle][NMeF][d(αMeC)]-OH; thioether N-8)",1460 nM
18,"CCCC[C@@H]1NC(=O)[C@H](Cc2ccc(C(F)(F)F)nc2)NC(=O)[C@H](CCCn2ccnc2)N(C)C(=O)[C@H](Cc2ccccc2)OC(=O)C23CC(CNC(=O)[C@H](Cc4ccccc4)N(C)C(=O)[C@H](CCCC)NC(=O)[C@H](Cc4ccccc4F)NC1=O)(C2)C3 (single isomer, unassigned) [compound 219, cyclo(FLac-NMeNvaImid-4CF33Pal-Nle-Phe2F-Nle-NMeF-amBCP)]",62.8 nM
19,"CCCC[C@@H]1NC(=O)[C@H](Cc2ccc(OC)cc2)NC(=O)[C@H](CC2CCC2)NC(=O)[C@H](Cc2cccnc2)NC(=O)[C@H](CCCNC(=N)N)NC(=O)[C@H](Cc2ccccc2)NC(=O)C2CCC3(CN(C3)C(=O)[C@H](Cc3ccccc3)N(C)C1=O)O2 (single isomer, unassigned) [compound 100, cyclo(F-R-3Pal-cBuA-TyrOMe-Nle-NMeF-spiro54)]",656 nM
20,"CCCC[C@@H]1NC(=O)[C@H](Cc2ccc(C(F)(F)F)nc2)NC(=O)[C@H](CCCn2ccnc2)N(C)C(=O)[C@H](Cc2ccccc2)OC(=O)C23CC(CNC(=O)[C@H](Cc4ccccc4)N(C)C(=O)[C@H](CCCC)NC(=O)[C@H](Cc4ccccc4F)NC1=O)(C2)C3 (single isomer, unassigned) [compound 218, cyclo(FLac-NMeNvalmid-4CF33Pal-Nle-Phe2F-Nle-NMeF-amBCP)]",188 nM
21,"CCCC[C@@H]1NC(=O)[C@H](Cc2cncnc2)NC(=O)[C@H](C)N(C)C(=O)[C@H](Cc2ccccc2)OC(=O)C23CC(CNC(=O)[C@H](Cc4ccccc4)N(C)C(=O)[C@H](CCC(C)C)NC(=O)[C@H](Cc4ccccc4F)NC1=O)(C2)C3 [compound 132, cyclo(FLac-NMeA-PyrimAla-Nle-Phe2F-hL-NMeF-amBCP)] (cyclo([NMeA][Ala(pyrimidin-5-yl)][Nle][Phe(2-F)][hLeu][NMeF][X1][PhLac]))",7.87 nM
